Laboratory results published in patent US20260262643A1, “HERBICIDAL BENZOXAZINES” (FMC CORPORATION, priority 2022, published 2026).

Key:
ragweed [1] = assay: Test C preemergence; type: in vivo, Ambrosia artemisiifolia; settings: 0 to 100 scale (0 no effect, 100 complete control); for Ragweed plant response rating: preemergence
Outline: (§1)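 Seeds sown in loam soil–sand blend received a directed preemergence soil spray of test chemical in non-phytotoxic solvent with surfactant; postemergence plants (2–10 cm, one- to two-leaf stage) were sprayed with the same formulation. Greenhouse-held 10 days, then visually rated for injury versus untreated controls, 0 (no effect) to 100 (complete control).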

ryegrass, Italian [2] = assay: Test C postemergence; type: in vivo, Lolium multiflorum
Outline: as §1

barnyardgrass [3] = assay: Test C preemergence; type: in vivo, Echinochloa crusgalli; settings: Preemergence, 1000 g ai/ha; visual rating after 10 days, 0 to 100 scale (0 no effect, 100 complete control)
Outline: as §1

kochia [4] = assay: Test C preemergence; type: in vivo, Bassia scoparia; settings: 0 to 100 scale (0 no effect, 100 complete control); for Kochia plant response rating: preemergence
Outline: as §1

corn [5] = assay: Test C postemergence; type: in vivo, Zea mays
Outline: as §1

blackgrass [6] = assay: Test C postemergence; type: in vivo, Alopecurus myosuroides
Outline: as §1

foxtail, giant [7] = assay: Test C postemergence; type: in vivo, Setaria faberi
Outline: as §1

wheat [8] = assay: Test C postemergence; type: in vivo, Triticum aestivum
Outline: as §1

Pigweed, Redroot [9] = assay: Test C preemergence; type: in vivo, Amaranthus retroflexus; settings: 1000 g ai/ha, visual rating after 10 days, 0 to 100 scale (0 no effect, 100 complete control)
Source text: (§2) Seeds of plant species selected from barnyardgrass (Echinochloa crusgalli), blackgrass (Alopecurus myosuroides), corn (Zea mays), foxtail, giant (giant foxtail, Setaria faberi), green foxtail (Setaria viridis), goosegrass (Eleusine indica), kochia (Bassia scoparia), oat, wild (wild oat, Avena fatua), pigweed, palmer (palmer amaranth, palmer pigweed, Amaranthus palmeri), Pigweed, Redroot (redroot pigweed, Amaranthus retroflexus), ragweed (common ragweed, Ambrosia artemisiifolia), ryegrass, Italian ([…] ryegrass, Lolium multiflorum), soybean (Glycine max), and wheat (Triticum aestivum) were planted into a blend of loam soil and sand and treated preemergence with a directed soil spray using test chemicals formulated in a non-phytotoxic solvent mixture which included a surfactant. At the same time, plants selected from these crops and weed species and also galium (catchweed bedstraw, Galium aparine) and horseweed (Erigeron canadensis) were planted in pots containing the same blend of loam soil and sand and treated with postemergence applications of test chemicals formulated in the same manner. Plants ranged in height from 2 to 10 cm and were in the one- to two-leaf stage for the postemergence treatment. Treated plants and untreated controls were maintained in a greenhouse for 10 days, after which time all treated plants were compared to untreated controls and visually evaluated for injury. Plant response ratings, summarized in Table C, are based on a 0 to 100 scale where 0 is no effect and 100 is complete control. A dash (-) response means no test result.

foxtail, giant [10] = assay: Test C preemergence; type: in vivo, Setaria faberi; settings: 0 to 100 scale (0 no effect, 100 complete control); for Foxtail, Giant plant response rating: preemergence
Outline: as §1

ryegrass, Italian [11] = assay: Test C preemergence; type: in vivo, Lolium multiflorum; settings: 0 to 100 scale (0 no effect, 100 complete control); for Ryegrass, Italian plant response rating: preemergence
Outline: as §1

kochia [12] = assay: Test C postemergence; type: in vivo, Bassia scoparia
Outline: as §1

galium = assay: Test C postemergence; type: in vivo, Galium aparine
Outline: as §1

barnyardgrass [13] = assay: Test C postemergence; type: in vivo, Echinochloa crusgalli; settings: Postemergence, 1000 g ai/ha; 0 to 100 scale, 0 no effect, 100 complete control
Outline: as §1

Pigweed, Redroot [14] = assay: Test C postemergence; type: in vivo, Amaranthus retroflexus; settings: 1000 g ai/ha, 0 to 100 scale, 0 no effect, 100 complete control
Source text: as §2

ragweed [15] = assay: Test C postemergence; type: in vivo, Ambrosia artemisiifolia
Outline: as §1

soybean [16] = assay: Test C preemergence; type: in vivo, Glycine max; settings: preemergence, 0 to 100 scale (0 no effect, 100 complete control)
Outline: as §1

goosegrass [17] = assay: Test C preemergence; type: in vivo, Eleusine indica; settings: preemergence, 0 to 100 scale (0 no effect, 100 complete control)
Source text: as §2

oat, wild [18] = assay: Test C preemergence; type: in vivo, Avena fatua; settings: preemergence, 0 to 100 scale (0 no effect, 100 complete control)
Outline: as §1

goosegrass [19] = assay: Test C postemergence; type: in vivo, Eleusine indica; settings: postemergence, 10 days
Source text: as §2

pigweed, palmer [20] = assay: Test C preemergence; type: in vivo, Amaranthus palmeri; settings: preemergence, 0 to 100 scale (0 no effect, 100 complete control)
Outline: as §1

blackgrass [21] = assay: Test C preemergence; type: in vivo, Alopecurus myosuroides; settings: preemergence, 0 to 100 scale (0 no effect, 100 complete control)
Outline: as §1

horseweed = assay: Test C postemergence; type: in vivo, Erigeron canadensis; settings: postemergence, 10 days
Outline: as §1

ducksalad = assay: Test D flooded paddy test; type: in vivo, Heteranthera limosa; settings: 250 g ai/ha, applied to paddy water, visual rating after 13 to 14 days, scale 0 to 100 (0 no effect, 100 complete control)
Outline: (§3)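 Plants grown to the 2-leaf stage; pots flooded to 3 cm above soil at treatment and held at that depth throughout. Test compounds applied directly to the paddy water. After 13 to 14 days in a greenhouse, response was rated visually versus controls on a 0 (no effect) to 100 (complete control) scale.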

soybean [22] = assay: Test C postemergence; type: in vivo, Glycine max; settings: postemergence, 10 days
Outline: as §1

rice = assay: Test D flooded paddy test; type: in vivo, Oryza sativa; settings: 250 g ai/ha, applied to paddy water, visual rating after 13 to 14 days, scale 0 to 100 (0 no effect, 100 complete control)
Outline: as §3

corn [23] = assay: Test C preemergence; type: in vivo, Zea mays; settings: preemergence, 0 to 100 scale (0 no effect, 100 complete control)
Outline: as §1

wheat [24] = assay: Test C preemergence; type: in vivo, Triticum aestivum; settings: preemergence, 0 to 100 scale (0 no effect, 100 complete control)
Outline: as §1

oat, wild [25] = assay: Test C postemergence; type: in vivo, Avena fatua; settings: postemergence, 10 days
Outline: as §1

sedge, umbrella = assay: Test D flooded paddy test; type: in vivo, Cyperus difformis; settings: 250 g ai/ha, applied to paddy water, visual rating after 13 to 14 days, scale 0 to 100 (0 no effect, 100 complete control)
Outline: as §3

pigweed, palmer [26] = assay: Test C postemergence; type: in vivo, Amaranthus palmeri; settings: postemergence, 10 days
Outline: as §1

barnyardgrass [27] = assay: Test D flooded paddy test; type: in vivo, Echinochloa crus-galli; settings: 250 g ai/ha, applied to paddy water, visual rating after 13 to 14 days, scale 0 to 100 (0 no effect, 100 complete control)
Outline: as §3

[28] = Preemergence, 1000 g ai/ha, visual rating after 10 days
[29] = Postemergence, 1000 g ai/ha, 0 to 100 scale, 0 no effect, 100 complete control
[30] = 125 g ai/ha, postemergence, 10 days, 0 to 100 scale, 0 no effect, 100 complete control
[31] = 500 g ai/ha, postemergence, 10 days, 0 to 100 scale (0 no effect, 100 complete control)
[32] = 125 g ai/ha, 0 to 100 scale, 0 no effect, 100 complete control
[33] = 500 g ai/ha, 0 to 100 scale (0 no effect, 100 complete control)

C[C@H]1CN(C(=O)c2cccc(-c3cccnc3)c2)c2cccc(Cl)c2O1 [Compound 200]
Plant response rating, Ragweed (ragweed [1]; [28]): 0 | Plant response rating, Ryegrass, Italian (ryegrass, Italian [2]; [29]): 0 | Plant response rating, Barnyardgrass (barnyardgrass [3]): 0 | Plant response rating, Kochia (kochia [4]; [28]): 0 | Plant response rating, Corn (corn [5]; [29]): 20 | Plant response rating, Blackgrass (blackgrass [6]; [29]): 0 | Plant response rating, Foxtail, Giant (foxtail, giant [7]; [29]): 0 | Plant response rating, Wheat (wheat [8]; [29]): 0 | Plant response rating, Pigweed, Redroot (Pigweed, Redroot [9]): 0 | Plant response rating, Foxtail, Giant (foxtail, giant [10]; [28]): 0 | Plant response rating, Ryegrass, Italian (ryegrass, Italian [11]; [28]): 0 | Plant response rating, Kochia (kochia [12]; [29]): 0 | Plant response rating, Galium (galium; [29]): 30 | Plant response rating, Barnyardgrass (barnyardgrass [13]): 10 | Plant response rating, Pigweed, Redroot (Pigweed, Redroot [14]): 20 | Plant response rating, Ragweed (ragweed [15]; [29]): 0

Cc1cccc2c1O[C@@H](C)CN2C(=O)c1cccc(-n2cnc(C#C[Si](C)(C)C)n2)c1 [Compound 284]
Soybean plant response rating (soybean [16]; 500 g ai/ha): 0 | Soybean plant response rating (soybean [16]; Test C, 125 g ai/ha): 0 | Goosegrass plant response rating (goosegrass [17]; 500 g ai/ha): 90 | Goosegrass plant response rating (goosegrass [17]; Test C, 125 g ai/ha): 10 | Oat, Wild plant response rating (oat, wild [18]; 500 g ai/ha): 70 | Oat, Wild plant response rating (oat, wild [18]; Test C, 125 g ai/ha): 20 | Ragweed plant response rating (ragweed [1]; 500 g ai/ha): 0 | Ragweed plant response rating (ragweed [1]; Test C, 125 g ai/ha): 0 | Plant response rating, Ryegrass, Italian (ryegrass, Italian [2]; [30]): 0 | Plant response rating, Ryegrass, Italian (ryegrass, Italian [2]; [31]): 0 | Plant response rating, Goosegrass (goosegrass [19]; [32]): 10 | Plant response rating, Goosegrass (goosegrass [19]; [33]): 30 | Pigweed, Palmer plant response rating (pigweed, palmer [20]; 500 g ai/ha): 0 | Pigweed, Palmer plant response rating (pigweed, palmer [20]; Test C, 125 g ai/ha): 0 | Blackgrass plant response rating (blackgrass [21]; 500 g ai/ha): 60 | Blackgrass plant response rating (blackgrass [21]; Test C, 125 g ai/ha): 0 | Kochia plant response rating (kochia [4]; 500 g ai/ha): 10 | Kochia plant response rating (kochia [4]; Test C, 125 g ai/ha): 0 | Plant response rating, Corn (corn [5]; [30]): 0 | Plant response rating, Corn (corn [5]; [31]): 10 | Plant response rating, Blackgrass (blackgrass [6]; [30]): 0 | Plant response rating, Blackgrass (blackgrass [6]; [31]): 40 | Plant response rating, Foxtail, Giant (foxtail, giant [7]; [30]): 10 | Plant response rating, Foxtail, Giant (foxtail, giant [7]; [31]): 20 | Plant response rating, Wheat (wheat [8]; [30]): 10 | Plant response rating, Wheat (wheat [8]; [31]): 10 | Foxtail, Giant plant response rating (foxtail, giant [10]; 500 g ai/ha): 90 | Foxtail, Giant plant response rating (foxtail, giant [10]; Test C, 125 g ai/ha): 0 | Plant response rating, Horseweed (horseweed; [32]): 0 | Plant response rating, Horseweed (horseweed; [33]): 50 | Plant response rating, Ducksalad (Flood) (ducksalad): 65 | Plant response rating, Soybean (soybean [22]; [32]): 20 | Plant response rating, Soybean (soybean [22]; [33]): 30 | Plant response rating, Rice (Flood) (rice): 0 | Ryegrass, Italian plant response rating (ryegrass, Italian [11]; 500 g ai/ha): 90 | Ryegrass, Italian plant response rating (ryegrass, Italian [11]; Test C, 125 g ai/ha): 50 | Corn plant response rating (corn [23]; 500 g ai/ha): 0 | Corn plant response rating (corn [23]; Test C, 125 g ai/ha): 0 | Plant response rating, Kochia (kochia [12]; [30]): 10 | Plant response rating, Kochia (kochia [12]; [31]): 50 | Plant response rating, Galium (galium; [30]): 70 | Plant response rating, Galium (galium; [31]): 90 | Wheat plant response rating (wheat [24]; 500 g ai/ha): 10 | Wheat plant response rating (wheat [24]; Test C, 125 g ai/ha): 0 | Plant response rating, Oat, Wild (oat, wild [25]; [32]): 10 | Plant response rating, Oat, Wild (oat, wild [25]; [33]): 10 | Plant response rating, Sedge, Umbrella (Flood) (sedge, umbrella): 0 | Plant response rating, Pigweed, Palmer (pigweed, palmer [26]; [32]): 40 | Plant response rating, Pigweed, Palmer (pigweed, palmer [26]; [33]): 60 | Plant response rating, Barnyardgrass (Flood) (barnyardgrass [27]): 0 | Plant response rating, Ragweed (ragweed [15]; [30]): 0 | Plant response rating, Ragweed (ragweed [15]; [31]): 0
